Measured values reported in patent publication US20260248809A1, “ESTRADIOL PRODRUGS AND METHODS OF USE THEREOF” (UNIVERSITY OF MARYLAND, BALTIMORE, priority 2022, published 2026).

How the values were obtained:
Assay type in all cases: in vivo, mouse
[1] = tested on: male mice; test: Subthreshold social defeat stress followed by female urine sniffing test (anhedonia); conditions: for stress-induced anhedonia: chronic treatment (silastic implant or minipump), orchiectomized male mice + SSDS; for anhedonia (female urine preference): orchiectomized male mice
Procedure: (§1) Subthreshold social defeat stress: Retired CD1 breeders are singly housed and used as aggressors. Experimental mice are introduced to the home cage of an aggressor for 2 min to initiate the physical attack phase. Afterward, mice are transferred and housed on the opposite side of the aggressor, in the same cage separated by a perforated Plexiglass divider for 15 mins in order to maintain sensory contact. This process is repeated 3 times over a period of ~50 min.
(§2) Female Urine Preference Test: is performed 24 hours after the social interaction test as using previously described methods. The amount of time mice spent interacting with a cotton-tipped applicator soaked in either fresh male or female mouse urine during a total of 3 minutes is analyzed by an experimenter blind to the experimental groups.
(§3) For the chronic administration paradigms, silastic tubes (1.02 mm inner diameter×2.16 mm outer diameter) were filled with testosterone (10 mm) or 17β-Estradiol (E2; 1,3 and 10 mm; Sigma-Aldrich, St. Louis, MO, USA). Silastic implants were primed in 0.9% saline at 37° C. overnight prior to their subcutaneous use. Letrozole (1 mg/kg/day; Sigma-Aldrich, St. Louis, MO, USA) was dissolved in propylene glycol (MP Biomedicals, Santa Ana, CA, USA) and administered through ALZET minipumps (Model 1002, 0.25 μl/hour, 14 days; Cupertino, CA, USA). DHED (synthesized using previously described methods) was dissolved in 0.9% saline and administered through ALZET minipumps (Model 1002, 0.25 μl/hour, 14 days; Cupertino, CA, USA) at a dose of […]. Flutamide was administered through 1.5 mg slow-release subcutaneous pellets (Innovative Research of America, Sarasota, FL, USA). For acute administration, 17β-Estradiol (E2; 10 and […]) was dissolved in sesame oil (4 ml/kg, s.c.; Sigma-Aldrich, St. Louis, MO, USA).
(§4) Retired CD1 breeders were singly housed and used as aggressors. Two days prior to the start of the experiment, experimental mice were also singly housed. The stress procedure was performed using previously described methods. Briefly, experimental mice were introduced to the home cage of an aggressor for 2 min to initiate the physical attack phase. Afterward, mice were transferred and housed on the opposite side of the aggressor, in the same cage separated by a perforated Plexiglass divider for 15 mins in order to maintain sensory contact. This process was repeated 3 times over a period of ~50 min. Following the completion of the third cycle, mice were placed back in their home cages.
(§5) Acute E2 was administered 45 min prior to the initiation of stress or 5 min after the completion of stress. For the optogenetic stimulation, ChR2 and YFP-injected mice received a 4 Hz, 5 ms pulse width, 10-15 mW 470 nm light stimulation for 45 min prior to the initiation of stress. This stimulation paradigm was shown previously to increase synaptic transmission. The optogenetic set up consisted of an LED driver paired with a fiber-coupled LED light source attached to a bifurcated optogenetic path cable (400 μm, 0.49 NA; ThorLabs, Newton NJ, USA).
as §2, with “FUST procedure was” for “Female Urine Preference Test: is”, “and 48 hours after stress. FUST was performed” for “as”, “was” for “is”

[2] = tested on: male mice; test: Subthreshold social defeat stress (SSDS) followed by social interaction test; conditions: for stress-induced social interaction deficits: chronic treatment (silastic implant or minipump), orchiectomized male mice + SSDS; for social interaction (sociability) deficits: orchiectomized male mice
Procedure: as §1
(§6) Social Interaction: Mice are placed in a rectangular box (40 cm length×30 cm width×35 cm height; Stoelting, IL) divided into three compartments (two equal-sized end-chambers and a middle chamber) for five minute habituation phase (10-15 lux). After the habituation phase, two small wire cages are introduced into the two end chambers, one containing an unfamiliar, non-aggressive CD1 mouse and the other remaining empty. The amount of time mice spent sniffing each cage during the five-min test is assessed using CleverSys tracking software (CleverSys, Inc, Reston VA, USA).
as §3, §4, §5
as §6, with “Social interaction was performed 24 hours following subthreshold social defeat or inescapable foot-shock stress. For the habituation phase, mice were” for “Social Interaction: Mice are”, “five minutes” for “five minute habituation phase”, “cages were” for “cages are”, “test was” for “test is”

[3] = tested on: male mice; test: Stress-moderated acquisition, extinction and reinstatement of fear; conditions: orchiectomized males + subthreshold SDS, 10 mm silastic implant
Description: Determine the role of E2 in stress-moderated acquisition, extinction, and reinstatement of fear responses in males. Animal approaches to study PTSD should include an inescapable severe stressor. These experiments assess interactions between a stress and the effects of E2. […] For either result, it is critical to understand if E2 mediates interactions with stress. This is because the acquisition of fear is an adaptive response that is not considered pathological in and of itself. However, veterans have often encountered stressful circumstances that lead to an exaggerated and pathological state of fear, which is both resistant to extinction and highly susceptible to relapse. Considering that social stress is an important risk factor contributing toward the onset of PTSD in response to a traumatic event, the social defeat stress paradigm is utilized in order to model the conditions under which veterans develop PTSD. […] It is anticipated that sub-threshold SDS (rather than 10 day) paradigm is sufficient to induce effects in orchiectomized mice. […] Mice are assessed for social interaction deficits 24 hours after the subthreshold defeat sessions to determine if they are resilient or susceptible. n=18/mice per group is used to account for only a subset of mice being susceptible to stress. […]

[4] = acute administration 5 min after SSDS
[5] = acute s.c. administration 45 min prior to SSDS

SMILES	stress-induced anhedonia [1]	anhedonia (female urine preference) [1, 4]	anhedonia (female urine preference) [1, 5]	stress-induced social interaction deficits [2]	social interaction (sociability) deficits [2, 4]	social interaction (sociability) deficits [2, 5]	stress-susceptible phenotype induced by low testosterone ([2]; orchiectomized mice on low dose testosterone + SSDS)	stress effect on extinction of conditioned fear and reinstatement [3]	maladaptive behaviors (social interaction, anhedonia) ([2]; chronic treatment, gonadally intact or non-stressed mice)
C[C@]12CC[C@@H]3c4ccc(O)cc4CC[C@H]3[C@@H]1CC[C@@H]2O [Example E2, 17β-Estradiol]	reversed	reversed only the anhedonia phenotype	prevented	reversed the stress-induced social avoidance	reversed only the anhedonia phenotype	prevented the development of both sociability deficits	completely recover the phenotype	reversed	
C[C@]12CC[C@H]3[C@@H](CCC4=CC(=O)CC[C@@]43C)[C@@H]1CC[C@@H]2O [Testosterone, testosterone]	reversed the observed maladaptive behaviors			reversed the observed maladaptive behaviors				reversed	no effect
